Reference: ChEMBL document CHEMBL1201862, “PubChem BioAssay data set” (2004)
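Dose response: 5 concentrations. Exposure: 48 h. Format: 96-well plates. Endpoint: linear interpolation; highest concentration if not reached. Here, GI50 denotes the concentration required for 50% inhibition of growth.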 The source made the active and inactive calls. Rule as the data show it: active = GI50 up to about 1.1 µM and inactive = higher.

Tests used:
Assay in all cases: DTP human tumour cell line panel, 48 h
786-0 = system: 786-0
DU-145 = system: DU-145
IGROV-1 = system: IGROV-1
MCF7 = system: MCF7
MDA-MB-231 = system: MDA-MB-231
NCI-H23 = system: NCI-H23
NCI-H522 = system: NCI-H522
OVCAR-4 = system: OVCAR-4
PC-3 = system: PC-3
SF-268 = system: SF-268
T47D = system: T47D
TK-10 = system: TK-10
DMS-114 = system: DMS-114
EKVX = system: EKVX
KM-20L2 = system: KM-20L2
LXFL 529 = system: LXFL 529
M19-MEL = system: M19-MEL
SN12C = system: SN12C
SNB-78 = system: SNB-78
XF498 = system: XF498

Row | SMILES | GI50 (786-0) | GI50 (DU-145) | GI50 (IGROV-1) | GI50 (MCF7) | GI50 (MDA-MB-231) | GI50 (NCI-H23) | GI50 (NCI-H522) | GI50 (OVCAR-4) | GI50 (PC-3) | GI50 (SF-268) | GI50 (T47D) | GI50 (TK-10) | GI50 (DMS-114) | GI50 (EKVX) | GI50 (KM-20L2) | GI50 (LXFL 529) | GI50 (M19-MEL) | GI50 (SN12C) | GI50 (SNB-78) | GI50 (XF498)
1 | N=C(N)N/N=C/c1ccc(O)c(C(=O)O)c1 | > 100 µM (inactive) | > 100 µM (inactive) | > 100 µM (inactive) | > 100 µM (inactive) | > 100 µM (inactive) | > 100 µM (inactive) | > 100 µM (inactive) | > 100 µM (inactive) | > 100 µM (inactive) | > 100 µM (inactive) | > 100 µM (inactive) | > 100 µM (inactive) | – | – | – | – | – | – | – | –
2 | CCOC(=O)C1=C(C)N(C2OC(COC(=O)c3ccccc3)C(OC(=O)c3ccccc3)C2OC(=O)c2ccccc2)C(=S)NC1c1ccccc1 (centres undefined) | – | – | 46.8 µM (inactive) | – | – | 29.1 µM (inactive) | 22.1 µM (inactive) | 29.4 µM (inactive) | – | 44.6 µM (inactive) | – | – | 19 µM (inactive) | 6.79 µM (inactive) | 43.6 µM (inactive) | 27.2 µM (inactive) | 33.1 µM (inactive) | 40.4 µM (inactive) | 31.8 µM (inactive) | –
3 | O=C(CC(C(=O)c1cccs1)c1ccc2c(c1)OCO2)c1ccc(Br)cc1 (centres undefined) | > 100 µM (inactive) | > 100 µM (inactive) | > 100 µM (inactive) | > 100 µM (inactive) | > 100 µM (inactive) | > 100 µM (inactive) | – | > 100 µM (inactive) | > 100 µM (inactive) | > 100 µM (inactive) | > 100 µM (inactive) | > 100 µM (inactive) | – | > 100 µM (inactive) | – | – | – | > 100 µM (inactive) | – | –
4 | Cc1ccc(Nc2n[nH]c(NS(=O)(=O)c3cc(C(=O)Nc4ccc(Cl)cc4)c(Cl)cc3S)n2)cc1 | – | > 100 µM (inactive) | > 100 µM (inactive) | > 100 µM (inactive) | > 100 µM (inactive) | > 100 µM (inactive) | – | > 100 µM (inactive) | > 100 µM (inactive) | > 100 µM (inactive) | 63.2 µM (inactive) | > 100 µM (inactive) | – | 35 µM (inactive) | – | – | – | > 100 µM (inactive) | – | –
5 | CSc1cc(Cl)c(C)cc1S(=O)(=O)NC(=O)NNc1ccc(F)c(Cl)c1 | > 100 µM (inactive) | > 100 µM (inactive) | > 100 µM (inactive) | > 100 µM (inactive) | > 100 µM (inactive) | – | > 100 µM (inactive) | > 100 µM (inactive) | > 100 µM (inactive) | > 100 µM (inactive) | > 100 µM (inactive) | – | – | > 100 µM (inactive) | – | – | – | > 100 µM (inactive) | – | –
6 | O=[N+]([O-])c1ccc(C2Nn3c(nnc3-c3cccc([N+](=O)[O-])c3)S2)cc1 (centres undefined) | > 100 µM (inactive) | > 100 µM (inactive) | > 100 µM (inactive) | 44.3 µM (inactive) | > 100 µM (inactive) | > 100 µM (inactive) | > 100 µM (inactive) | > 100 µM (inactive) | > 100 µM (inactive) | > 100 µM (inactive) | 49.4 µM (inactive) | > 100 µM (inactive) | – | > 100 µM (inactive) | – | – | – | > 100 µM (inactive) | – | –
7 | CCOC(=O)CC(=O)CSc1c(-c2ccccc2)c(=O)n(-c2ccccc2)c(=S)n1-c1ccccc1 | > 100 µM (inactive) | > 100 µM (inactive) | 19.8 µM (inactive) | > 100 µM (inactive) | > 100 µM (inactive) | > 100 µM (inactive) | 69.7 µM (inactive) | > 100 µM (inactive) | > 100 µM (inactive) | > 100 µM (inactive) | > 100 µM (inactive) | > 100 µM (inactive) | – | > 100 µM (inactive) | – | – | – | > 100 µM (inactive) | – | –
8 | Cc1ccc(-c2cc(-c3ccco3)c(C#N)c(=O)n2C2OC(CO)C(O)C(O)C2O)cc1 (centres undefined) | – | – | 49.1 µM (inactive) | – | – | 37.1 µM (inactive) | 44.5 µM (inactive) | 35.7 µM (inactive) | – | 53 µM (inactive) | – | 45.3 µM (inactive) | > 100 µM (inactive) | > 100 µM (inactive) | > 100 µM (inactive) | 61.9 µM (inactive) | – | 46.3 µM (inactive) | 65.5 µM (inactive) | –
9 | N#CC1(C#N)C(=O)c2ccncc2C1=O | – | > 100 µM (inactive) | > 100 µM (inactive) | > 100 µM (inactive) | > 100 µM (inactive) | > 100 µM (inactive) | > 100 µM (inactive) | > 100 µM (inactive) | > 100 µM (inactive) | > 100 µM (inactive) | > 100 µM (inactive) | – | – | > 100 µM (inactive) | – | – | – | > 100 µM (inactive) | – | –
10 | C[C@]12CC[C@@H]3c4ccc(O)cc4CC[C@H]3[C@@H]1CC[C@@H]2OP(=O)(O)O | > 100 µM (inactive) | > 100 µM (inactive) | > 100 µM (inactive) | > 100 µM (inactive) | > 100 µM (inactive) | > 100 µM (inactive) | > 100 µM (inactive) | > 100 µM (inactive) | > 100 µM (inactive) | > 100 µM (inactive) | > 100 µM (inactive) | > 100 µM (inactive) | – | > 100 µM (inactive) | – | – | – | > 100 µM (inactive) | – | –
11 | CC(Cn1c(=O)oc2ccccc21)N(C)C (centres undefined) | > 100 µM (inactive) | > 100 µM (inactive) | > 100 µM (inactive) | > 100 µM (inactive) | > 100 µM (inactive) | > 100 µM (inactive) | – | – | > 100 µM (inactive) | > 100 µM (inactive) | – | > 100 µM (inactive) | – | > 100 µM (inactive) | – | – | – | > 100 µM (inactive) | – | –
12 | CC(=O)O[C@@]12CO[C@@H]1CC(O)[C@@]1(C)C(=O)[C@H](O)C3=C(C)C(O)C[C@@](O)(C(OC(=O)c4ccccc4)C12)C3(C)C (some centres undefined) | 2.9 µM (inactive) | 3.35 µM (inactive) | 1.88 µM (inactive) | 0.463 µM (active) | 4.19 µM (inactive) | 0.869 µM (active) | 0.637 µM (active) | > 90.8 µM (inactive) | 0.881 µM (active) | 3.97 µM (inactive) | > 100 µM (inactive) | 8.51 µM (inactive) | – | 5.62 µM (inactive) | 0.679 µM (active) | – | 12.8 µM (inactive) | 2.18 µM (inactive) | 15.5 µM (inactive) | 2.07 µM (inactive)
13 | COc1ccc(-c2cc(-c3cc(OC)c(OC)c(OC)c3)cc(-c3cc4ccccc4oc3=O)n2)cc1 | 2.16 µM (inactive) | 9.53 µM (inactive) | 7.06 µM (inactive) | 16.7 µM (inactive) | 2.3 µM (inactive) | 7.87 µM (inactive) | 6.85 µM (inactive) | 3.94 µM (inactive) | 19.6 µM (inactive) | 3.45 µM (inactive) | 7.19 µM (inactive) | 8.18 µM (inactive) | – | 10.9 µM (inactive) | – | – | – | 8.93 µM (inactive) | – | –
14 | O=C1C(Cl)N(c2cccc(Cl)c2)C1c1c[nH]c2ccccc12 (centres undefined) | – | – | > 100 µM (inactive) | – | – | > 100 µM (inactive) | > 100 µM (inactive) | > 100 µM (inactive) | – | > 100 µM (inactive) | – | > 100 µM (inactive) | > 100 µM (inactive) | > 100 µM (inactive) | > 100 µM (inactive) | > 100 µM (inactive) | > 100 µM (inactive) | > 100 µM (inactive) | – | > 100 µM (inactive)
15 | COc1cc(/C=C/C(=O)C(C)(C)C)cc(OC)c1OC | 53.7 µM (inactive) | – | – | – | – | 29.9 µM (inactive) | 29 µM (inactive) | 14.8 µM (inactive) | – | 33.9 µM (inactive) | – | > 100 µM (inactive) | 25.6 µM (inactive) | 45.7 µM (inactive) | 51.1 µM (inactive) | 22.8 µM (inactive) | 31.8 µM (inactive) | 34.3 µM (inactive) | – | 82 µM (inactive)
16 | CCOC(=O)c1ccc(N(CCOS(=O)(=O)c2ccc(C)cc2)CCOS(=O)(=O)c2ccc(C)cc2)cc1 | – | – | > 100 µM (inactive) | 7.05 µM (inactive) | 27.2 µM (inactive) | > 100 µM (inactive) | > 100 µM (inactive) | 32.8 µM (inactive) | 17 µM (inactive) | > 100 µM (inactive) | – | > 100 µM (inactive) | – | > 100 µM (inactive) | – | – | – | < 0.01 µM (active) | – | –
17 | CC1(c2ccccc2)N=c2[nH]cnc2=C(C(N)=O)N1 (centres undefined) | > 100 µM (inactive) | > 100 µM (inactive) | > 100 µM (inactive) | > 100 µM (inactive) | > 100 µM (inactive) | > 100 µM (inactive) | > 100 µM (inactive) | > 100 µM (inactive) | > 100 µM (inactive) | > 100 µM (inactive) | > 100 µM (inactive) | > 100 µM (inactive) | – | > 100 µM (inactive) | – | – | – | > 100 µM (inactive) | – | –
18 | O=C(O)Cc1cccc2c1Oc1ccccc1S2 | > 100 µM (inactive) | – | > 100 µM (inactive) | – | – | > 100 µM (inactive) | – | > 100 µM (inactive) | – | > 100 µM (inactive) | – | > 100 µM (inactive) | > 100 µM (inactive) | > 100 µM (inactive) | > 100 µM (inactive) | > 100 µM (inactive) | > 100 µM (inactive) | > 100 µM (inactive) | > 100 µM (inactive) | –
19 | O=C(c1cccs1)c1nccc2c1cnc1ccccc12 | 68.5 µM (inactive) | > 100 µM (inactive) | – | 20.3 µM (inactive) | > 100 µM (inactive) | 92.7 µM (inactive) | – | > 100 µM (inactive) | > 100 µM (inactive) | 26.2 µM (inactive) | > 100 µM (inactive) | > 100 µM (inactive) | – | > 100 µM (inactive) | – | – | – | > 100 µM (inactive) | – | –
20 | COc1ccc2c(c1)CCN=C2Cc1cc(OC)c(OC)cc1CCCl | – | > 100 µM (inactive) | 52.4 µM (inactive) | 52.2 µM (inactive) | 32.1 µM (inactive) | 52 µM (inactive) | 21.7 µM (inactive) | > 100 µM (inactive) | 48 µM (inactive) | 48.6 µM (inactive) | 53.1 µM (inactive) | 35.7 µM (inactive) | – | > 100 µM (inactive) | – | – | – | 48.4 µM (inactive) | – | –
